The record followed here is patent publication US9232796B2, “Herbicidal compositions comprising 4-amino-3-chloro-5-fluoro-6-(4-chloro-2-fluoro-3-methoxyphenyl) pyridine-2-carboxylic acid or a derivative thereof and acetyl-CoA carboxylase (ACCase) inhibitors” (DOW AGROSCIENCES LLC, priority 2012, dated 2016).

Molecules are shown by their SMILES.

The subject of one experiment is CYPIR. The experiment in a line: Example V post-emergence field trials in direct-seeded rice. In kind it is in vivo, Cyperus iria. The note with it: foliar, field trial Tolima, Colombia. On the procedure:
Multiple field trials were conducted under commercial grower field conditions in Tolima, Colombia; Thessaloniki, Greece; Bianze and Copiano, Italy; and Humphrey, Ark., USA. Trials sites were located in commercially grown fields of direct-seeded rice (Oryza sativa) using standard herbicide small plot research methodology. Plots varied from 2 to 3 meter (m)×5 to 8 m (width×length) with 4 replicates per treatment. The rice crop was grown using normal cultural practices for fertilization, seeding, watering, flooding and maintenance to ensure good growth of the crop and the weeds.
All treatments in the field trials were applied using a backpack compressed air/gas sprayer with flat fan nozzles (80° or 110°) calibrated to apply 187 to 300 L/ha spray volume at approximately 200-400 kPa nozzle pressure. Commercially available products of cyhalofop-butyl (Clincher 180EC, Clincher 200EC, and Clincher SF (285 gr ai/L EC)) were mixed in water at appropriate formulated product rates to achieve the desired rates based on a unit area of application (hectare) to achieve the desired rates as shown. Treatments were rate at 19 to 58 days after application (DAA) as compared to the untreated control plants. Visual weed control was scored on a scale of 0 to 100 percent where 0 corresponds to no injury and 100 corresponds to complete kill. […]

A further experiment deals with SCPJU. As to the kind of experiment: Example VI in-water applied ternary mixtures, greenhouse, transplanted paddy rice weeds. In kind it is in vivo, Schoenoplectus juncoides (Roxb.) Palla. How it is done: Weed seeds or nutlets of the desired test plant species were planted in puddled soil (mud) prepared by mixing a shredded, non-sterilized mineral soil (50.5 percent silt, 25.5 percent clay, and 24 percent sand, with a pH of about 7.6 and an organic matter content of about 2.9 percent) and water at a 1:1 volumetric ratio. The prepared mud was dispensed in 365 mL aliquots into 16-ounce (oz.) non-perforated plastic pots with a surface area of 86.59 square centimeters (cm^2) leaving a headspace of 3 centimeters (cm) in each pot. Mud was allowed to dry overnight prior to planting or transplanting. Rice seeds were planted in Sun Gro MetroMix® 306 planting mixture, which typically has a pH of 6.0 to 6.8 and an organic matter content of about 30 percent, in plastic plug trays. Seedlings at the second or third leaf stage of growth were transplanted into 860 mL of mud contained in 32-oz. non-perforated plastic pots with a surface area of 86.59 cm^2 4 days prior to herbicide application. The paddy was created by filling the headspace of the pots with 2.5 to 3 cm of water. When required to ensure good germination and healthy plants, a fungicide treatment and/or other chemical or physical treatment was applied. The plants were grown for 4-22 days in a greenhouse with an approximate 14 hr. photoperiod which was maintained at about 29° C. during the day and 26° C. during the night. Nutrients were added as Osmocote® (19:6:12, N:P:K+minor nutrients) at 2 g per 16-oz. pot and 4 g per 32-oz. pot. Water was added on a regular basis to maintain the paddy flood, and supplemental lighting was provided with overhead metal halide 1000-Watt lamps as necessary. The plants were employed for testing when they reached the first through fourth true leaf stage.
Treatments consisted of the benzyl ester of 4-amino-3-chloro-5-fluoro-6-(4-chloro-2-fluoro-3-methoxy-phenyl)pyridine-2-carboxylic acid (Compound A), formulated as an SC (suspension concentrate), an ACCase inhibitor herbicide, and a third herbicidal component, each applied alone and in ternary combination. Forms of compound A were applied on an acid equivalent basis.
The ACCase inhibitor component was applied on an active ingredient basis and included cyhalofop-R-butyl formulated as Clincher® G and metamifop formulated as Metamifop EC. […]
Treatment requirements for each compound or herbicidal component were calculated based upon the rates being tested, the concentration of active ingredient or acid equivalent in the formulation, an application volume of 1 mL per component per pot, and an application area of 86.59 cm^2 per pot.
For formulated compounds, a measured amount was placed in an individual 100 or 200 mL glass vial and was dissolved in a volume of 1.25% (v/v) Agri-Dex® crop oil concentrate to obtain application solutions. […]

For the molecule `CCCCOC(=O)[C@@H](C)Oc1ccc(Oc2ccc(C#N)cc2F)cc1` [Cyhalofop-butyl, butyl(2R)-2-[4-(4-cyano-2-fluorophenoxy)phenoxy]propanoate, reference compound], in the experiment on CYPIR (280 gai/ha), the “Visual Weed Control (%) - 19 DAA CYPIR Obs” value is on record as 0%. For the same molecule, the “Visual Weed Control (%) - 21 DAA SCPJU Obs” value with SCPJU (22.5 gai/ha) and with SCPJU (45 gai/ha) was 0% in each case.
For `COc1c(Cl)ccc(-c2nc(C(=O)OCc3ccccc3)c(Cl)c(N)c2F)c1F` [Compound A Benzyl Ester, benzyl ester of 4-amino-3-chloro-5-fluoro-6-(4-chloro-2-fluoro-3-methoxy-phenyl)pyridine-2-carboxylic acid], the “Visual Weed Control (%) - 19 DAA CYPIR Obs” value with CYPIR (12 gae/ha) is on record as 69%. Moreover, the “Visual Weed Control (%) - 21 DAA SCPJU Obs” value in the experiment with SCPJU (2.19 gae/ha) was 77%.
